In ChEMBL document CHEMBL3507680, “University of Dundee, Gates Library screen for HepG2 cell viability” one finds cytotoxicity data, which are given here for 92 compounds.

The nature of this series: Human HepG2 cell viability assay in 384 well format. To be noted: HepG2 cells, read-out: Inhibition. More on the design: dose 125 nL, time 70.5 hour; concentration not given beside the values. It is filed as toxicity, cell-based.

Take `Cc1ccc2c(c1)c(Sc1ccccc1)c(CC(=O)O)n2C`: the cytotoxicity at 70.5 h came to 1.6%.
Under `Cn1c2ccccc2c2ncn(CCCN3CCOCC3)c(=O)c21` stands 12.2%; under `CC(C)[C@H](NC(=O)N1CCC(Cc2ccccc2)CC1)C(=O)O`, -8.02%.
Consider `CSCC[C@H](NC(=O)N1CCC(Cc2ccccc2)CC1)C(=O)O`, for which the cytotoxicity at 70.5 h is -13.4%.
In the case of `CCNCCC(Cc1ccccc1)c1ccco1` (configuration not stated), the cytotoxicity at 70.5 h is -8.72%.
In the case of `CC1=C(C#N)C(=O)N(C)C(=O)/C1=C\C1=Cc2ccccc2OC1`, the cytotoxicity at 70.5 h stood at 8.21%.
For `COCCCN(Cc1ccccn1)S(=O)(=O)c1ccc(OC)cc1`, the cytotoxicity at 70.5 h is -14.1%.
Take `Cn1nnc2c(sc3nc(N4CCOCC4)c4c(c32)CCC4)c1=O`: the cytotoxicity at 70.5 h is -16%.
Under `CC[C@H](C)[C@H](NC(=O)c1ccc(-n2cnnn2)cc1)C(=O)OC` stands 10.1%; under `CSCC[C@@H](CO)NC(=O)c1ccc2nc(NS(C)(=O)=O)sc2c1`, -1%; under `Cc1nc(-c2cnn(C)c2)nc2c1CN(C(=O)c1ccc[nH]1)CC2`, -6.12%.
Under `CS(=O)(=O)N1C[C@H]2CCC[C@@]2(COCC2CCOCC2)C1` stands -4.48%; under `CCc1ccc2c(C3CN(C(C)=O)C3)ncn2c1`, -3.55%; under `CC(C)N1CCc2ncn(C)c2C1C(=O)NCCN1CCCC1` (configuration not stated), -8.41%.
As for `O=C(c1ncccn1)N1C[C@@H]2CN(CC3CC3)CCO[C@@H]2C1`, the figure is -13.4%.
In the case of `CS(=O)(=O)N1CCc2ccc(=O)n(CC3CCOCC3)c2CC1`, the cytotoxicity at 70.5 h is -7.42%.
As for `Cc1ccc2c(c1)C1(CCNCC1)CC2OCC1CC1` (configuration not stated), the figure is -1.43%.
As for `COCCC(=O)N1Cc2[nH]nc(COc3cccnc3)c2C1`, the figure is -13.5%; as for `CN(C)C(=O)CN1C[C@H]2CCN(C(=O)c3ccccc3)CC[C@H]2S1(=O)=O`, -10.6%.
Under `CC(C)n1cnc(C2CN(C)c3ccc(C(=O)NC4CCCC4)cc32)n1` (configuration not stated) stands -5.54%.
Turning to `CN(Cc1ccccc1)CC1CC2(CO1)CN(c1nncs1)C2` (configuration not stated), the cytotoxicity at 70.5 h is -8.78%.
As for `FC1(F)CCNCC12CCN(c1ccccn1)C2` (configuration not stated), the figure is 9.9%; as for `Fc1cnc(N2CCCn3c(nnc3Cn3cccn3)C2)nc1`, 12.7%; as for `CC(=O)NCC(=O)NC1CCc2c(ccc(=O)n2CC2CC2)C1` (configuration not stated), -1.98%.
As for `CC1c2ncc(COCC3CCOCC3)n2CCN1S(C)(=O)=O` (configuration not stated), the figure is -1.95%; as for `Cn1c2c(ccc1=O)CC(NC(=O)Cc1ccsc1)CC2` (configuration not stated), -2.49%; as for `O=S(=O)(C1CC1)N1CCc2ncnc(-c3ccsc3)c2CC1`, -0.114%.
For `O=C(CC1CC1)NC1CCc2c(ccc(=O)n2CC2CC2)C1` (configuration not stated), the cytotoxicity at 70.5 h worked out at 0.842%.
As for `FC1(F)CCNCC12CCN(c1ncccn1)C2` (configuration not stated), the figure is -4.34%.
Under `Cn1cc(CN2C[C@@H]3COC[C@]3(C(=O)N3CCCO3)C2)cn1` stands -1.04%; under `CCOCc1cncc2c1CCN(S(=O)(=O)c1cccc(C)c1)C2`, -4.1%.
As for `O=S(=O)(C1CC1)N1CCc2ncnc(-c3ccc(F)cc3)c2CC1`, the figure is 0.906%; as for `CCN1CC[C@]2(CN(C(=O)C3CCOCC3)C[C@H]2c2ccccc2)C1=O`, 0.473%.
Consider `c1cc(CN2CCO[C@@H]3CNC[C@@H]32)co1`, for which the cytotoxicity at 70.5 h was 3.81%.
Take `CNC(=O)N1CCN(C(=O)N(C)C)CC2(CC(=O)N(C)C2)C1` (configuration not stated): the cytotoxicity at 70.5 h is -20%.
As for `COCC(=O)N1CC[C@H]2N(C)CC[C@@]2(C(=O)Nc2ccccc2)CC1`, the cytotoxicity at 70.5 h was -20%.
Under `O=C(c1cccnc1)N1CCN(CC2CC2)c2ncccc2C1` stands 0.755%.
On to `COCC1COCCC12CCN(C(=O)COc1ccccc1)CC2` (configuration not stated), for which the cytotoxicity at 70.5 h was -14.3%.
As for `Cc1noc([C@@H]2CC[C@@H]3[C@@H](CCN3S(C)(=O)=O)O2)n1`, the figure is -16.7%.
As for `CCOCc1cnc2n1CCN(C(=O)C1=CCCC1)C2C` (configuration not stated), the figure is -2.23%.
Under `CCS(=O)(=O)N1CC[C@H]2O[C@H](c3nc(C)no3)CC[C@H]21` stands -14.9%; under `CCc1ccc(C(=O)N2CC(C(=O)NC(C)C)C3(CCOCC3)C2)cc1` (configuration not stated), -20.6%; under `CC(C)CCN1C[C@H]2CCN(C(=O)NC3CCCC3)CC[C@H]2S1(=O)=O`, -23.9%.
As to `COc1ncccc1C(=O)N1CC[C@H]2C[C@@H](c3ccncn3)O[C@@H]2C1`, the cytotoxicity at 70.5 h was -18%.
As for `CSCC[C@H](N)c1nnc(SCC(=O)Nc2ccc(Br)cc2)o1`, the figure is -18.7%; as for `N[C@@H](Cc1ccccc1)c1nnc(S(=O)(=O)Cc2ccc(Cl)cc2)o1`, 12.7%; as for `CC(C)N1CCC2(CC1)C(=O)N(c1cccnc1)c1ccc(F)cc12`, -0.653%.
On to `CN(C)CCCNCCC(c1ccccc1)C1CCOC(C)(C)C1` (configuration not stated), for which the cytotoxicity at 70.5 h is -3.41%.
As for `CCN(CC)c1ccc2ccc(C(=O)N3CCCCO3)cn12`, the figure is 3.7%; as for `Cn1ccc(C(=O)N2C[C@@H]3CN(CC4CC4)CCO[C@@H]3C2)n1`, 11.6%; as for `Cc1cccc(COC[C@@]23CCC[C@@H]2CN(S(=O)(=O)N(C)C)C3)n1`, -4.49%.
As for `CS(=O)(=O)N1C[C@@H]2COC[C@]2(CN2CCOCC2)C1`, the figure is -8.04%; as for `CCN1C[C@@H]2CN(c3cc(OC)ncn3)CCC[C@]2(C(=O)O)C1`, -10.9%; as for `COc1cc(N2CCC[C@]3(C(=O)O)CN(C(C)C)C[C@@H]3C2)ncn1`, -3.84%.
As for `O=C(c1c[nH]cn1)N1CCC(F)(F)C2(CCN(c3cccc(F)c3)C2)C1` (configuration not stated), the figure is -7.39%; as for `COCCN1CCC12CCN(c1ncccn1)C2` (configuration not stated), -5.32%; as for `CC(=O)N1CCCC1c1nnn2cc(-c3ccncc3)ccc12` (configuration not stated), -5.32%.
Take `CC(=O)N1CCCC1c1nnn2cc(Nc3ccccc3)ccc12` (configuration not stated): the cytotoxicity at 70.5 h was -5.52%.
In the case of `Cc1ccc(N2C[C@H]3CCC[C@@H](CN4CCOCC4)[C@H]3C2)nn1`, the cytotoxicity at 70.5 h was -1.56%.
Under `Cc1ccc(N2C[C@H]3CCC[C@@H](CN(C)C)[C@H]3C2)nn1` stands -0.102%.
As for `Cc1occc1C(=O)N1C[C@@H](OCc2cccnc2)[C@H]2OCCC[C@@H]21`, the figure is -21.3%; as for `Cc1cccc(CN2CC[C@@H]3[C@@H]2CCN3C(=O)c2cc(C)on2)n1`, -12.4%; as for `COc1ccc(CN2C[C@@H]3COC[C@@H](CC(=O)N4CCCC4)[C@@H]3C2)cc1`, -19.9%.
Under `Cc1ncsc1CN1C[C@@H]2COC[C@]2(CNC(=O)c2ccccc2)C1` stands -7.33%; under `Cn1cc(CN2C[C@@H]3COC[C@]3(CNC(=O)c3ccccc3)C2)cn1`, -13.5%; under `Cc1ccc(CN2C[C@@H]3COC[C@@H](CC(=O)N4CCOCC4)[C@@H]3C2)s1`, -11%.
For `COC1COC2(CCN(Cc3ccccc3F)CC2)C1` (configuration not stated), the cytotoxicity at 70.5 h is -8.4%.
With `O=C(C[C@@H]1COC[C@H]2CN(Cc3ccccc3)C[C@@H]12)N1CCCC1`, the cytotoxicity at 70.5 h was -14.4%.
Under `CN(C)C(=O)C1OC2(CCN(c3ncc(F)cn3)CC2)c2ccccc21` (configuration not stated) stands 3.5%.
Under `CS(=O)(=O)N1CCC2(CC1)COC(COc1ccccn1)C2` (configuration not stated) stands -12.3%.
As for `COC[C@@H]1CCC[C@]12CN(CCc1ccccc1)CCO2`, the cytotoxicity at 70.5 h is -12.8%.
For the compound `CN1CCC2(COCCN(Cc3ccc4c(c3)OCO4)C2)C1` (configuration not stated), the cytotoxicity at 70.5 h is 13.5%.
As to `Cc1noc(C)c1CN1CCc2ncc(CN(C)C)n2CC1`, the cytotoxicity at 70.5 h was -8.78%.
Under `O=C(O)c1cc2c(nc1N1CCCC1)CCN(C1CCOCC1)CC2` stands 12%; under `c1cnc2c(c1)CN(C1CCOC1)CCN2CC1CC1` (configuration not stated), -8.62%.
As for `O=C(O)c1cc2c(nc1NCC1CC1)CCN(C1CCOC1)CC2` (configuration not stated), the figure is -4.26%.
Take `O=C(N1CCCO1)[C@]12COC[C@H]1CN(Cc1cccnc1)C2`: the cytotoxicity at 70.5 h is -7.03%.
As to `Cn1nccc1-c1ncc2c(c1C(=O)O)CCN(Cc1cccnc1)C2`, the cytotoxicity at 70.5 h is -2.63%.
Under `COCCN1CCCC12CCN(Cc1cncn1C)CC2` stands -1.01%.
As for `COc1ccc(CN2C[C@H]3CCC[C@@H](CN(C)C)[C@H]3C2)cn1`, the figure is -2.35%.
As for `CO[C@H]1CCN(S(=O)(=O)N(C)C)[C@@H]2CN(Cc3cccnc3)C[C@H]12`, the figure is -5.31%.
With `CCS(=O)(=O)N1CC[C@H](OC)[C@H]2CN(Cc3ccncc3)C[C@H]21`, the cytotoxicity at 70.5 h is -3.99%.
Under `Cc1noc(C)c1CN1C[C@@H](OCc2ccccn2)[C@H]2OCCC[C@H]21` stands -16.3%; under `CC(C)CN1CCC(c2nc3ccc(NC(C)C)cn3n2)CC1`, -13.1%.
Take `c1coc(CN2C[C@@H]3OCCN(CCN4CCCC4)[C@@H]3C2)c1`: the cytotoxicity at 70.5 h was -7.43%.
For `Fc1ccccc1CN1C[C@@H]2CN(Cc3cccnc3)CCO[C@@H]2C1`, the cytotoxicity at 70.5 h is -11.8%.
`COc1ccccc1CN1C[C@@H]2CN(Cc3cccnc3)CCO[C@@H]2C1`: the cytotoxicity at 70.5 h is 12.8%.
Under `Fc1ccc(CN2C[C@@H]3OCCN(CCN4CCCC4)[C@@H]3C2)cc1` stands -6.53%; under `Cc1nc(CN2CCN(C3CCOC3)Cc3cccnc32)cs1` (configuration not stated), -0.337%.
Under `O=C(O)c1cc2c(nc1-c1ccncc1)CCN(C1CCOC1)CC2` (configuration not stated) stands -4.07%.
On to `Cn1nccc1-c1ncc2c(c1C(=O)O)CCN(Cc1ccccc1)C2`, for which the cytotoxicity at 70.5 h came to 11.6%.
As to `Cn1ccnc1CN1C[C@H](N2CCOCC2)[C@@H]2OCCC[C@@H]21`, the cytotoxicity at 70.5 h is -3.14%.
